Measured values as given in US20020192637A1, “Biological Sensor” (priority 1999, published 2002).

Assays:
[1] = system: hippocampal neuronal cell cultures; test: Acute addition of antimicrobial agents to spontaneously active hippocampal neuronal cultures on MMEP plates; format: cell-based, rat; conditions: for effect on spontaneous activity at up to 10 times the normal concentration/volume: sequential 10 μl additions up to 10 times normal; for effect on spontaneous activity (firing) of the monitored channel: acute addition (10 μl) at the concentration used routinely in tissue culture, hippocampal cultures grown 4 weeks antibiotic-free; for effect of further sequential 10 μl additions: subsequent 10 μl aliquots (penicillin G up to 100 μl at approx. 10 second intervals)
Description: Acute administration of antibiotic compounds to neuronal cell cultures: the majority of experiments involved the investigation of acute addition of a range of antibiotics to hippocampal cultures grown in antibiotic-free Neurobasal medium for 4 weeks. In each case MMEP's were screened for activity and a strong, reliable channel was selected for experimentation. Each antibiotic was tested on at least 3 individual cultures and the antibiotic addition was started at the concentration used routinely in tissue culture studies. As controls, the anti-fungal agents Nystatin and Amphotericin B (Fungizone), and the anti-mycoplasma (PPLO) agent Tylosin were also tested. In addition, the agent in which the antibiotic compound was dissolved (usually deionised water or 0.9% sodium chloride), as well as normal medium, were also tested for any effects on neuronal activity. Particular interest was paid to the effects of penicillin G, streptomycin and penicillin/streptomycin mixtures. These are routinely used in tissue culture medium and therefore any possible toxic effects are particularly relevant.

P19 cell line = test: Differentiation of P19 cell line with retinoic acid; format: cell-based, mouse; conditions: retinoic acid in differentiation medium
Description: Differentiation: MEM+0.1% FBS+L-Glutamine (2 mM)+Non-essential Amino acids (1×)+30 uM retinoic acid
Neurobasal+B27+Non-essential Amino acids (1×)+L-Glutamine (2 mM)+30 uM retinoic acid
Differentiation experiments have been performed on the P19 cell line using retinoic acid. […] However, only 60-70% of the cells responded to the stimulus, such that over an extended period the non-neuronal cells proliferate vigorously and kill the neuronal cells. The use of serum-free medium has overcome this problem but cultures appear unhealthy after a period of 2 weeks.

guinea pigs = conditions: high doses, administered chronically to guinea pigs; cited from earlier work
hippocampal cultures = test: Chronic administration of antibiotics to hippocampal cultures grown over 4 weeks, neuronal network activity; format: cell-based, rat
Description: Effects of antibiotics on neuronal network activity: chronic administration of antibiotics to neuronal cell cultures. The chronic effect of antibiotics on neuronal network activity was investigated. Experiments were performed on hippocampal cultures grown in parallel, from the same cell preparation, in the presence or absence of penicillin-streptomycin or gentamycin at the recommended doses.

C[C@@H]1[C@H](O)[C@@H](C)/C=C/C=C/CC/C=C/C=C/C=C/C=C/C(O[C@H]2O[C@H](C)[C@@H](O)[C@H](N)[C@@H]2O)CC2O[C@](O)(CC(O)C(O)CCC(O)CC(O)CC(O)CC(=O)O[C@H]1C)CC(O)C2C(=O)O (stereo partly drawn) [Nystatin]
effect on spontaneous activity at up to 10 times the normal concentration/volume [1]: No inhibition of activity

CC1(C)S[C@@H]2[C@H](NC(=O)Cc3ccccc3)C(=O)N2[C@H]1C(=O)O [Penicillin G]
effect on spontaneous activity (firing) of the monitored channel [1]: immediate increase in the firing rate
effect on spike amplitude ([1]; acute addition of 10 μl): small associated decrease in the amplitude
effect on spontaneous activity at up to 10 times the normal concentration/volume [1]: initial acceleration of the firing rate, with an accompanied reduction in spike amplitude
effect of further sequential 10 μl additions [1]: further decrease in the amplitude with eventual slowing of the firing rate

[H]/N=C(/N)N[C@H]1[C@H](O)[C@@H](O)[C@H](O[C@@H]2O[C@@H](C)[C@](O)(C=O)[C@H]2O[C@@H]2O[C@@H](CO)[C@H](O)[C@@H](O)[C@@H]2NC)[C@@H](N/C(N)=N\[H])[C@@H]1O [Streptomycin]
silence before activity begins to recover ([1]; 10 μl, particularly strong (>500(V) channel, without change of medium)): approximately 30 seconds
effect on spontaneous activity (firing) of the monitored channel [1]: immediate cessation of firing
effect of further sequential 10 μl additions [1]: immediate interruption of activity
effect on channel with weak activity ([1]; weak activity (<500 μV), single 10 μl addition): sufficient to inhibit activity for several minutes

CC[C@H]1OC(=O)C[C@@H](O)[C@H](C)[C@@H](O[C@@H]2O[C@H](C)[C@@H](O[C@H]3C[C@@](C)(O)[C@@H](O)[C@H](C)O3)[C@H](N(C)C)[C@H]2O)[C@@H](CC=O)C[C@@H](C)C(=O)/C=C/C(C)=C/[C@@H]1CO[C@@H]1O[C@H](C)[C@@H](O)[C@@H](OC)[C@H]1OC [Tylosin]
effect on spontaneous activity at up to 10 times the normal concentration/volume [1]: No inhibition of activity

C[C@@H]1[C@H](O)[C@@H](C)/C=C/C=C/C=C/C=C/C=C/C=C/C=C/[C@H](O[C@@H]2O[C@H](C)[C@@H](O)[C@H](N)[C@@H]2O)C[C@@H]2O[C@](O)(C[C@@H](O)C[C@@H](O)[C@H](O)CC[C@@H](O)C[C@@H](O)CC(=O)O[C@H]1C)C[C@H](O)[C@H]2C(=O)O [amphotericin B, Amphotericin B]
effect on spontaneous activity at up to 10 times the normal concentration/volume [1]: No inhibition of activity

CC1=C(/C=C/C(C)=C/C=C/C(C)=C/C(=O)O)C(C)(C)CCC1 [retinoic acid]
proportion of cells that responded to the stimulus (P19 cell line): 60-70%

Gentamicin
effect on spontaneous activity (firing) of the monitored channel [1]: cessation of neuronal activity
reversibility of inhibition ([1]; complete medium change within the MMEP culture apparatus): reversed by a complete medium change
effect on neuronal cytoarchitecture (guinea pigs): major structural changes in neuronal cytoarchitecture
long-term effect indicated by poor frequency of activity detection (hippocampal cultures; cultures grown for several weeks in the presence of the antibiotic): toxic effect
effect on neuronal network activity after chronic presence (hippocampal cultures; recommended doses, grown over a 4-week period): almost complete cessation of activity

Polymyxin ‘B’
effect on spontaneous activity (firing) of the monitored channel [1]: inhibition of activity
